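How tested: cells in 96-well plates exposed to compound for 48 hours at five concentrations. TGI: concentration producing complete growth inhibition.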
Assays:
Assay in all cases: NCI-60 cell line screen, 48 h
HOP-62 NSCLC = test system: HOP-62 NSCLC
SK-MEL-2 melanoma = test system: SK-MEL-2 melanoma
MCF7 breast = test system: MCF7 breast
EKVX NSCLC = test system: EKVX NSCLC
TK-10 renal = test system: TK-10 renal
OVCAR-3 ovarian = test system: OVCAR-3 ovarian
NCI-H23 lung = test system: NCI-H23 lung
LOX IMVI melanoma = test system: LOX IMVI melanoma
ACHN renal = test system: ACHN renal
A549 NSCLC = test system: A549 NSCLC
BT-549 breast = test system: BT-549 breast
UO-31 renal = test system: UO-31 renal
SNB-19 CNS = test system: SNB-19 CNS
DU-145 prostate = test system: DU-145 prostate
MDA-N = test system: MDA-N
MALME-3M melanoma = test system: MALME-3M melanoma
HCT-116 colon = test system: HCT-116 colon
HCC-2998 colon = test system: HCC-2998 colon
UACC-62 melanoma = test system: UACC-62 melanoma
NCI/ADR-RES ovarian = test system: NCI/ADR-RES ovarian
M14 melanoma = test system: M14 melanoma
SN12C renal = test system: SN12C renal
MDA-MB-435 = test system: MDA-MB-435
OVCAR-8 ovarian = test system: OVCAR-8 ovarian
SW-620 colon = test system: SW-620 colon
MDA-MB-231 breast = test system: MDA-MB-231 breast
CCRF-CEM leukemia = test system: CCRF-CEM leukemia
786-0 renal = test system: 786-0 renal
HOP-92 NSCLC = test system: HOP-92 NSCLC
SK-MEL-28 melanoma = test system: SK-MEL-28 melanoma
RXF 393 renal = test system: RXF 393 renal
MOLT-4 leukemia = test system: MOLT-4 leukemia
SK-OV-3 ovarian = test system: SK-OV-3 ovarian
OVCAR-4 ovarian = test system: OVCAR-4 ovarian
HL-60(TB) leukemia = test system: HL-60(TB) leukemia
OVCAR-5 ovarian = test system: OVCAR-5 ovarian
T-47D breast = test system: T-47D breast
K-562 leukemia = test system: K-562 leukemia
PC-3 prostate = test system: PC-3 prostate
RPMI-8226 leukemia = test system: RPMI-8226 leukemia
U251 CNS = test system: U251 CNS
NCI-H226 lung = test system: NCI-H226 lung
SF-539 CNS = test system: SF-539 CNS
NCI-H460 lung = test system: NCI-H460 lung
CAKI-1 renal = test system: CAKI-1 renal
UACC-257 melanoma = test system: UACC-257 melanoma
SK-MEL-5 melanoma = test system: SK-MEL-5 melanoma
SR leukemia = test system: SR leukemia
SF-268 CNS = test system: SF-268 CNS
SF-295 CNS = test system: SF-295 CNS
HS 578T breast = test system: HS 578T breast
HT29 colon = test system: HT29 colon
COLO 205 colon = test system: COLO 205 colon
SNB-75 CNS = test system: SNB-75 CNS
IGROV1 ovarian = test system: IGROV1 ovarian
HCT-15 colon = test system: HCT-15 colon
KM12 colon = test system: KM12 colon
NCI-H522 lung = test system: NCI-H522 lung

With COc1cc(N(CCC#N)CCC#N)ccc1/C(N=Nc1ccc(C)cc1)=N/NC(=O)c1cc(Br)ccc1O the TGI (HOP-62 NSCLC) was 96.5 µM, the TGI (SK-MEL-2 melanoma) was 96.5 µM and the TGI (MCF7 breast) was greater than 100 µM. For the same compound, the TGI (EKVX NSCLC) was 66.7 µM, the TGI (TK-10 renal) was 82 µM and the TGI (OVCAR-3 ovarian) was 67.3 µM. The TGI (NCI-H23 lung) was 39.3 µM, the TGI (LOX IMVI melanoma) was 59 µM and the TGI (ACHN renal) was greater than 100 µM. For the same compound, the TGI (A549 NSCLC) was greater than 100 µM, the TGI (BT-549 breast) was 62.6 µM and the TGI (UO-31 renal) was 60.3 µM. For the same compound, the TGI (SNB-19 CNS) was greater than 100 µM, the TGI (DU-145 prostate) was 94.7 µM and the TGI (MDA-N) was greater than 100 µM. For the same compound, the TGI (MALME-3M melanoma) was greater than 100 µM, the TGI (HCT-116 colon) was 41.2 µM and the TGI (HCC-2998 colon) was 50.1 µM. For the same compound, the TGI (UACC-62 melanoma) was 45.1 µM, the TGI (NCI/ADR-RES ovarian) was greater than 100 µM and the TGI (M14 melanoma) was greater than 100 µM. For the same compound, the TGI (SN12C renal) was 54.9 µM, the TGI (MDA-MB-435) was greater than 100 µM and the TGI (OVCAR-8 ovarian) was 88 µM. The TGI (SW-620 colon) was greater than 100 µM, the TGI (MDA-MB-231 breast) was 55.2 µM and the TGI (CCRF-CEM leukemia) was 25.2 µM. For the same compound, the TGI (786-0 renal) was greater than 100 µM, the TGI (HOP-92 NSCLC) was 65.6 µM and the TGI (SK-MEL-28 melanoma) was 85.2 µM. For the same compound, the TGI (RXF 393 renal) was 65.6 µM, the TGI (MOLT-4 leukemia) was 37.3 µM and the TGI (SK-OV-3 ovarian) was greater than 100 µM. For the same compound, the TGI (OVCAR-4 ovarian) was 63.1 µM, the TGI (HL-60(TB) leukemia) was 40.9 µM and the TGI (OVCAR-5 ovarian) was greater than 100 µM. For the same compound, the TGI (T-47D breast) was 47.3 µM, the TGI (K-562 leukemia) was greater than 100 µM and the TGI (PC-3 prostate) was 66.5 µM. The TGI (RPMI-8226 leukemia) was greater than 100 µM, the TGI (U251 CNS) was greater than 100 µM and the TGI (NCI-H226 lung) was greater than 100 µM. It also gave a TGI (SF-539 CNS) greater than 100 µM, a TGI (NCI-H460 lung) of 54.4 µM and a TGI (CAKI-1 renal) of 66.6 µM. The TGI (UACC-257 melanoma) was 83.8 µM, the TGI (SK-MEL-5 melanoma) was 37 µM and the TGI (SR leukemia) was 76.3 µM. For the same compound, the TGI (SF-268 CNS) was 91.4 µM, the TGI (SF-295 CNS) was greater than 100 µM and the TGI (HS 578T breast) was greater than 100 µM. It also gave a TGI (HT29 colon) greater than 100 µM, a TGI (COLO 205 colon) of 29.1 µM and a TGI (SNB-75 CNS) of 75 µM. It also gave a TGI (IGROV1 ovarian) of 21.9 µM, a TGI (HCT-15 colon) of 33 µM and a TGI (KM12 colon) of 44.9 µM. The TGI (NCI-H522 lung) was 50.3 µM.
